In PubChem BioAssay (NCI):
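How tested: cells in 96-well plates exposed to compound for 48 hours at five concentrations. The concentration for full growth arrest is given as TGI.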

Columns and labels:
Assay in all cases: inhibition of tumour cell growth, NCI panel, 48 h
[1] = system: BT-549 breast
[2] = system: HCC-2998 colon
[3] = system: HCT-116 colon
[4] = system: HCT-15 colon
[5] = system: HL-60(TB) leukemia
[6] = system: HOP-92 NSCLC
[7] = system: K-562 leukemia
[8] = system: KM12 colon
[9] = system: LOX IMVI melanoma
[10] = system: M14 melanoma
[11] = system: MDA-MB-231 breast
[12] = system: NCI-H23 lung
[13] = system: SN12C renal
[14] = system: SR leukemia
[15] = system: TK-10 renal
[16] = system: CCRF-CEM leukemia
[17] = system: OVCAR-4 ovarian
[18] = system: SK-MEL-28 melanoma
[19] = system: SK-OV-3 ovarian
[20] = system: CAKI-1 renal

SMILES	TGI [1] [µM]	TGI [2] [µM]	TGI [3] [µM]	TGI [4] [µM]	TGI [5] [µM]	TGI [6] [µM]	TGI [7] [µM]	TGI [8] [µM]	TGI [9] [µM]	TGI [10] [µM]	TGI [11] [µM]	TGI [12] [µM]	TGI [13] [µM]	TGI [14] [µM]	TGI [15] [µM]	TGI [16] [µM]	TGI [17] [µM]	TGI [18] [µM]	TGI [19] [µM]	TGI [20] [µM]
C/C1=C/C(C)CC(C)OC(=O)C(C)NC(=O)C(Cc2ccc(O)c(I)c2)N(C)C(=O)C(C)NC(=O)C(C)C1 (stereo not drawn)	0.737	5.2	> 48.7	12.1	< 0.01	0.0259	> 40.8	24.3	< 0.01	48.8	0.963	44.4	> 89.2	5.8	0.046	–	–	–	–	–
CC(C)(C)OC(=O)N(O)CCCn1cnc2c(N)ncnc21	> 100	> 100	> 100	> 100	–	> 100	> 100	> 100	> 100	> 100	> 100	> 100	> 100	> 100	> 100	> 100	> 100	> 100	> 100	–
CCOC(=O)Cc1csc2[n+]1C(=O)/C(=C/c1cccc(OC)c1O)S2	48.9	> 100	> 100	> 100	> 100	> 100	–	> 100	> 100	> 100	> 100	> 100	> 100	–	> 100	–	> 100	> 100	> 100	> 100
C/C=C\C(CC(=O)NCCC1CN(S(=O)(=O)C(F)(F)F)c2ccccc21)CC(=O)OC (stereo not drawn)	67.1	> 100	> 100	> 100	–	> 100	> 100	> 100	–	> 100	> 100	> 100	–	> 100	–	> 100	> 100	> 100	> 100	> 100
O=C(Cc1csc(N=Nc2c(O)[nH]c3ccccc23)n1)Nc1ccccc1	> 100	94.3	50.8	> 100	94	> 100	–	> 100	> 100	> 100	> 100	> 100	> 100	–	> 100	–	> 100	46.5	> 100	53.4
CC1(C)CC(=O)C2=C(C1)NC1=C(C(=O)CC(C)(C)C1)C2c1ccc([N+](=O)[O-])cc1	> 100	> 100	> 100	> 100	> 100	> 100	> 100	> 100	> 100	> 100	> 100	> 100	> 100	–	> 100	–	> 100	> 100	> 100	> 100
CCCCc1ccc(Nc2nc(=S)c3[nH]cnc3[nH]2)cc1	39	66.4	> 100	> 100	57.8	> 100	> 100	25.8	31.7	> 100	83.3	51.7	59	–	46.5	47.9	76.4	> 100	–	92.6
Cc1nc(C(N)=S)sc1C(/C=C/c1ccc(Cl)c(Cl)c1)=N/NC(C)(C)C	> 100	> 100	> 100	> 100	> 100	> 100	–	> 100	> 100	–	> 100	> 100	> 100	–	> 100	> 100	> 100	> 100	> 100	> 100
O=C1CC(=O)NC(=NN2C(=O)/C(=C/c3ccccc3)N=C2c2ccccc2)N1	77.1	> 100	> 100	> 100	–	> 100	> 100	> 100	–	> 100	> 100	> 100	> 100	> 100	> 100	> 100	> 100	> 100	> 100	> 100
N#CC(=C1CCCCC1)c1nc2ccccc2o1	89.1	> 100	> 100	> 100	75	> 100	> 100	> 100	–	> 100	> 100	> 100	> 100	> 100	> 100	> 100	> 100	> 100	> 100	> 100
Cc1c2c(n(CCc3ccccc3)c1C)N(C)N=C(C#N)S2(=O)=O	> 100	> 100	> 100	> 100	–	–	–	> 100	–	> 100	> 100	> 100	> 100	> 100	> 100	–	> 100	> 100	> 100	> 100
O=C(/C=C1\C[C@H]2C=Nc3ccccc3C(=O)N2C1)NCCCCNC(=O)/C=C1\C[C@H]2C=Nc3ccccc3C(=O)N2C1	26.1	32.9	25.9	27.7	12.6	20.4	> 33.5	33.3	6.35	19.5	0.986	27	11.4	–	23.8	4.82	26.1	33.3	34.4	6.4
O=C(C[n+]1ccccc1)N/N=C(\Cc1nc2ccc([N+](=O)[O-])cc2[nH]c1=O)C(=O)Nc1cc(Cl)c(Cl)cc1Cl	> 100	> 100	> 100	> 100	> 100	> 100	> 100	> 100	> 100	> 100	> 100	> 100	> 100	> 100	–	> 100	> 100	> 100	> 100	> 100
O=C1O[C@H]2[C@H](O)[C@@H](OC(=O)c3cc(O)c(O)c4c3[C@@H]3C1=CC(=O)C(O)(O)C3(O)O4)[C@H](OC(=O)c1cc(O)c(O)c(O)c1)O[C@@H]2CO (stereo partly drawn)	> 100	> 100	> 100	> 100	> 100	> 100	> 100	> 100	> 100	> 100	> 100	> 100	> 100	> 100	–	46.1	> 100	> 100	> 100	> 100
Brc1c(C#CCC(c2ccccc2)(c2ccccc2)c2ccccc2)ccc(C#CCC(c2ccccc2)(c2ccccc2)c2ccccc2)c1Br	> 100	> 100	> 100	> 100	> 100	> 100	> 100	> 100	–	> 100	> 100	> 100	> 100	> 100	> 100	> 100	> 100	> 100	> 100	> 100
O=C(N/N=C/c1ccc([N+](=O)[O-])o1)c1ccc(C(=O)N/N=C/c2ccc([N+](=O)[O-])o2)cc1	> 100	–	> 100	> 100	44.4	> 100	> 100	> 100	94.9	> 100	> 100	> 100	> 100	> 100	–	42.4	> 100	75.7	> 100	> 100
C=C(C)CC1(O)C(=O)C(OCC)=C1OCC (stereo not drawn)	> 100	–	> 100	> 100	> 100	> 100	–	> 100	> 100	> 100	> 100	> 100	> 100	–	> 100	> 100	> 100	> 100	> 100	> 100
CC(=O)Oc1cc2c(c3ncccc13)OC(C)(C)C2	> 100	> 100	27.5	46.5	–	27.1	23.4	30.7	–	27.5	24.4	> 100	25.9	6	26.3	28.7	25.5	> 100	> 100	21.3
O=C(CCCNc1nc(-c2ccccc2)cs1)c1cccs1	> 100	> 100	> 100	> 100	–	–	> 100	> 100	> 100	> 100	> 100	> 100	> 100	> 100	> 100	–	> 100	> 100	> 100	> 100
CC1=CCC2C3(C)CCC2(C(C)C)C1C3 (stereo not drawn) (tested in a mixture with another compound)	45.8	49.5	> 100	33.3	57.3	58.3	99	36.8	87.8	45.7	55.6	> 100	36.2	–	78.7	56.9	> 100	88.6	> 100	40.7
CCCCSC1=N/C(=C\c2ccc(N(C)C)cc2)C(NN)=N1	> 100	> 100	> 100	> 100	> 100	> 100	> 100	> 100	> 100	> 100	> 100	> 100	> 100	–	> 100	> 100	> 100	> 100	> 100	> 100
CCOC(=O)c1nc2ccccc2nc1Nc1ccc(OC)c(OC)c1	> 100	> 100	> 100	> 100	> 100	> 100	> 100	> 100	–	> 100	> 100	> 100	> 100	> 100	–	> 100	> 100	> 100	> 100	> 100
[N-]=[N+]=Nc1c(C=O)c(=O)n(-c2ccccc2)c2ccccc12	> 100	40.1	–	46.4	> 100	31.1	21.5	> 100	31.3	34.1	> 100	38	> 100	–	39.1	18.9	37.4	35.3	> 100	27.7
CCOC(=O)Cc1csc2[n+]1C(=O)/C(=C\c1cccc(Cl)c1Cl)S2	49	39.7	25.7	31.9	51.5	26.8	–	33.5	42.2	85.1	87.4	48.9	37.8	–	55.6	37.8	42.3	50.9	43.1	48.7
CCN(CC)CCN1C(=O)c2c(c(-c3ccccc3)c3ccccc3c2-c2ccccc2)C1=O	> 100	> 100	> 100	> 100	> 100	86.9	> 100	> 100	> 100	> 100	> 100	–	> 100	–	> 100	> 100	> 100	–	> 100	> 100
